Test results taken from the supplement of paper PMC10307832.

Tests used:
Test in all cases: relative viability (nuclei count vs DMSO), 5 days (fraction); higher = more cells survive
[1] = compound: CCn1c(-c2nonc2N)nc2c(C#CC(C)(C)O)ncc(OC[C@H]3CCCNC3)c21 + C[C@@H](Oc1cc(-c2cnn(C3CCNCC3)c2)cnc1N)c1c(Cl)ccc(F)c1Cl [Crizotinib] (partner 1 µM)
In short: (§1)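 Cells from lung cancer lines were seeded into 1536-well plates and, one day later, dosed by pin tool. Treatments were either a single drug or a fixed dose of an anchor drug with five library-drug doses (not always all listed) in √10 steps. After 5 days, nuclei were stained in a one-step fixation (final 0.05% Triton X-100, 1% formaldehyde, 1 ug/ml Hoechst) and counted on 4× images, and relative viability is the treated-to-vehicle nuclei ratio, as the median of duplicate plates.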

[2] = compound: CCn1c(-c2nonc2N)nc2c(C#CC(C)(C)O)ncc(OC[C@H]3CCCNC3)c21 + CC1(C)CCC(c2ccc(Cl)cc2)=C(CN2CCN(c3ccc(C(=O)NS(=O)(=O)c4ccc(N[C@H](CCN5CCOCC5)CSc5ccccc5)c(S(=O)(=O)C(F)(F)F)c4)cc3)CC2)C1 [Navitoclax] (partner 0.5 µM)
In short: as §1

[3] = compound: CCn1c(-c2nonc2N)nc2c(C#CC(C)(C)O)ncc(OC[C@H]3CCCNC3)c21 + Nc1nc2[nH]cc(CCc3ccc(C(=O)N[C@@H](CCC(=O)O)C(=O)O)cc3)c2c(=O)[nH]1 [Pemetrexed] (partner 0.2 µM)
In short: as §1

BAM7 + Tozasertib = compound: CCOC1=CC=CC=C1N=NC2=C(NN(C2=O)C3=NC(=CS3)C4=CC=CC=C4)C [BAM7] + Cc1cc(Nc2cc(N3CCN(C)CC3)nc(Sc3ccc(NC(=O)C4CC4)cc3)n2)n[nH]1 [Tozasertib] (partner 0.1 µM)
In short: as §1

| Cell Line | relative viability ([1]; first compound 0.01 µM) | relative viability ([1]; first compound 0.03162 µM) | relative viability ([1]; first compound 0.1 µM) | relative viability ([1]; first compound 0.3162 µM) | relative viability ([1]; first compound 1 µM) | relative viability ([2]; first compound 0.01 µM) | relative viability ([2]; first compound 0.03162 µM) | relative viability ([2]; first compound 0.1 µM) | relative viability ([2]; first compound 0.3162 µM) | relative viability ([2]; first compound 1 µM) | relative viability ([3]; first compound 0.01 µM) | relative viability ([3]; first compound 0.03162 µM) | relative viability ([3]; first compound 0.1 µM) | relative viability ([3]; first compound 0.3162 µM) | relative viability ([3]; first compound 1 µM) | relative viability (BAM7 + Tozasertib; first compound 0.5 µM) | relative viability (BAM7 + Tozasertib; first compound 5 µM) | relative viability (BAM7 + Tozasertib; first compound 15.81 µM) | relative viability (BAM7 + Tozasertib; first compound 50 µM) |
| --- | --- | --- | --- | --- | --- | --- | --- | --- | --- | --- | --- | --- | --- | --- | --- | --- | --- | --- | --- |
| PC-14 | 0.925 | 0.863 | 0.944 | 0.94 | 0.839 | 1.04 | 1.02 | 0.976 | 0.875 | 1.08 | 0.127 | 0.126 | 0.14 | 0.136 | 0.147 | 0.58 | 0.595 | 0.591 | 0.557 |
| NCI-H1651 | 0.857 | 0.829 | 0.877 | 0.853 | 0.893 | 1.06 | 1.02 | 1.01 | 1.14 | 1 | 0.653 | 0.605 | 0.597 | 0.574 | 0.572 | 0.674 | 0.758 | 0.637 | 0.638 |
| HARA | 0.976 | 1.01 | 1.05 | 1.03 | 1.02 | 1.09 | 1.2 | 1.14 | 1.16 | 1.14 | 0.24 | 0.19 | 0.223 | 0.247 | 0.249 | 0.117 | 0.116 | 0.093 | 0.0898 |
| NCI-H1650 | 0.964 | 1.06 | 0.924 | 0.971 | 1.07 | 1.2 | 1.04 | 1.03 | 0.894 | 1.13 | 0.361 | 0.352 | 0.369 | 0.359 | 0.348 | 0.335 | 0.305 | 0.28 | 0.314 |
| LU99A | 0.567 | 0.556 | 0.571 | 0.494 | 0.491 | 0.714 | 0.959 | 0.841 | 0.776 | 0.807 | 0.182 | 0.201 | 0.154 | 0.141 | 0.193 | 0.273 | 0.275 | 0.288 | 0.266 |
| NCI-H1355 | 1.09 | 0.943 | 1.03 | 1.02 | 0.799 | 1 | 0.819 | 1.02 | 0.882 | 0.969 | 0.959 | 0.981 | 1.02 | 1.02 | 1.06 | 0.515 | 0.461 | 0.361 | 0.459 |
| HCC-78 | 0.344 | 0.353 | 0.324 | 0.297 | 0.322 | 0.661 | 0.826 | 0.678 | 0.654 | 0.71 | 0.864 | 0.92 | 0.952 | 0.871 | 0.669 | 0.428 | 0.371 | 0.446 | 0.393 |
| HCC-15 | 0.764 | 0.868 | 0.758 | 0.748 | 0.726 | 0.72 | 0.752 | 0.721 | 0.634 | 0.653 | 0.218 | 0.225 | 0.218 | 0.211 | 0.209 | 0.471 | 0.493 | 0.346 | 0.284 |
| EKVX | 0.845 | 0.929 | 1.03 | 0.667 | 0.795 | 0.882 | 0.858 | 0.927 | 0.908 | 0.853 | 0.424 | 0.388 | 0.409 | 0.393 | 0.355 | 0.424 | 0.36 | 0.183 | 0.333 |
| NCI-H2087 | 0.729 | 0.748 | 0.942 | 0.847 | 0.732 | 0.832 | 1.08 | 0.961 | 1.03 | 1.02 | 0.614 |  | 0.646 | 0.615 | 0.613 | 0.227 | 0.244 | 0.211 | 0.205 |
| LK-2 | 0.247 | 0.181 | 0.215 | 0.24 | 0.232 | 0.787 | 0.927 | 0.77 | 0.872 | 0.889 | 0.277 | 0.333 | 0.269 | 0.204 | 0.234 | 0.173 | 0.174 | 0.15 | 0.173 |
| NCI-H1437 | 0.911 | 0.821 | 0.899 | 0.936 | 0.927 | 1.05 | 1.08 | 1.11 | 1.09 | 1.13 | 0.338 | 0.324 | 0.318 | 0.353 | 0.283 | 0.482 | 0.489 | 0.417 | 0.425 |
| COR-L23 | 0.612 | 0.724 | 0.56 | 0.662 | 0.604 | 0.838 | 1.05 | 1.01 | 0.968 | 1.03 | 0.212 | 0.207 | 0.202 | 0.187 | 0.196 | 0.177 | 0.197 | 0.133 | 0.183 |
| NCI-H838 | 0.805 | 0.969 | 0.826 | 0.835 | 0.841 | 1.15 | 1.22 | 1.2 | 1.03 | 1.19 | 0.248 | 0.251 | 0.238 | 0.225 | 0.255 | 0.262 | 0.309 | 0.233 | 0.263 |
| A-427 | 0.925 | 0.966 | 0.978 | 0.828 | 0.846 | 0.941 | 0.955 | 0.913 | 0.973 | 1.02 | 0.925 | 0.999 | 0.876 | 0.91 | 1.08 | 0.202 | 0.199 | 0.216 | 0.202 |
| LCLC-97TM1 |  | 0.435 | 0.331 | 0.333 | 0.367 |  | 0.337 | 0.475 | 0.641 | 0.328 | 0.169 | 0.179 | 0.141 | 0.147 | 0.175 | 0.207 | 0.442 | 0.261 | 0.172 |
| PC-3 [JPC-3] | 0.944 | 0.988 | 1.04 | 0.909 | 0.993 | 0.806 | 0.788 | 0.859 | 0.837 | 0.809 | 1.01 |  | 1.03 | 0.946 | 1.17 | 0.776 | 0.7 | 0.72 | 0.735 |
| BEN | 0.962 | 1.11 | 0.758 | 0.714 | 0.885 | 0.0596 | 0.0766 | 0.0603 | 0.0534 | 0.0741 | 0.779 | 0.821 | 0.605 | 0.753 | 0.773 | 0.559 | 0.442 | 0.59 | 0.423 |
| NCI-H1666 | 1.04 | 1.1 | 0.966 | 0.943 | 0.968 | 0.881 | 0.835 | 0.699 | 0.904 | 0.871 | 0.865 | 0.857 | 0.782 | 0.885 | 0.907 | 0.586 | 0.57 | 0.613 | 0.591 |
| LC-2-ad | 0.452 | 0.483 | 0.448 | 0.493 | 0.479 | 0.56 | 0.417 | 0.579 | 0.419 | 0.487 | 0.267 | 0.283 | 0.261 | 0.262 | 0.272 | 0.501 | 0.424 | 0.466 | 0.451 |
| SK-LU-1 | 1.11 | 0.817 | 0.925 | 0.978 | 0.987 | 0.89 | 0.936 | 0.99 | 0.921 | 0.761 | 0.869 | 0.985 | 0.823 | 0.929 | 0.855 | 0.332 | 0.449 | 0.341 | 0.323 |
| ChaGo-K-1 | 1.05 | 1.14 | 1.13 | 1.05 | 1.19 | 1.1 | 0.88 | 0.951 | 0.899 | 1.14 | 0.262 | 0.254 | 0.26 | 0.258 | 0.248 | 0.226 | 0.229 | 0.197 | 0.262 |
| COR-L 105 | 0.692 | 1.05 | 0.731 | 0.731 | 0.875 | 0.613 | 0.715 | 0.74 | 0.67 | 0.654 | 1.18 | 1.21 | 1.18 | 1.23 | 1.3 | 0.359 | 0.435 | 0.357 | 0.359 |
| NCI-H1975 | 0.945 | 1.08 | 0.893 | 1.03 | 0.98 | 1.03 | 1.3 | 1.12 | 1.14 | 1.03 | 0.278 | 0.323 | 0.29 | 0.279 | 0.295 | 0.41 | 0.512 | 0.465 | 0.512 |
| NCI-H1993 | 0.856 | 0.877 | 0.92 | 0.775 | 0.887 | 0.943 | 1.01 | 1.04 | 0.767 | 0.961 | 0.642 | 0.509 | 0.516 | 0.553 | 0.519 | 0.564 | 0.639 | 0.582 | 0.505 |
| RERF-LC-KJ | 0.808 | 0.788 | 0.815 | 0.829 | 0.837 | 0.944 | 1.04 | 0.773 | 1.17 | 0.791 | 0.486 | 0.442 | 0.432 | 0.478 | 0.488 | 0.413 | 0.264 | 0.231 | 0.249 |
| NCI-H23 | 0.477 | 0.572 | 0.444 | 0.48 | 0.417 | 0.782 | 0.807 | 0.868 | 0.794 | 0.833 | 0.647 | 0.642 | 0.58 | 0.579 | 0.611 | 0.245 | 0.367 | 0.288 | 0.256 |
| HCC-366 | 0.505 | 0.644 | 0.59 | 0.501 | 0.534 | 0.967 | 1.1 | 1.01 | 1.06 | 1.02 | 0.183 | 0.179 | 0.195 | 0.172 | 0.182 | 0.0637 | 0.0775 | 0.062 | 0.0627 |
